Measured values as given in patent US20040266862A1, “Method of improving animal tissue quality by supplementing the animal diet with mixed tocotrienols” (priority 2003, published 2004).
Marks after values point to notes of the source that are not given here.

Tests used:
Type in all cases: in vivo
chickens [1] = experiment: 2002 poultry feed test: TBARS content of raw ground chicken breasts; conditions: 300 ppm in diet
Source text: (§1) Applicants also assessed the effects of antioxidant supplementation on meat quality in an experiment in which meat from chickens fed one of four dietary treatments was compared. On Jul. 25, 2002, day-old chicks were obtained from a commercial company. The birds were housed in a brooder until Aug. 11, 2002. On Aug. 11, forty-eight birds were randomly allocated to one of four pens (twelve birds per pen). Birds in each pen were offered ad libitum access to one of four treatment diets: control, 300 ppm AT, 300 ppm GT or 150 ppm MT. The MT premix contained a commercially available MT supplement (7.5% alpha-, 12.3% gamma- and 3.0% delta-tocotrienol and 7.2% alpha-tocopherol) mixed with ground corn as the carrier. The total MT premix (ground corn plus MT supplement) represented 2.5% w/w of the finished MT supplemented feed.
(§2) On Sep. 13, 2002 (seven weeks of age) the birds were harvested, identified and frozen at −20C. The birds were stored frozen at −20C for 136-159 days post slaughter. On days 136, 156, 157, 158 and 159 (where available) two birds per dietary treatment were thawed in cold water. Meat was removed from the breasts (pectoralis major muscles) and thighs. Breast meat from each chicken was ground through a 3 mm disc in a Krups Butcher Shop 150W Professional Power Meat Grinder. Thigh meat from two chickens was combined (for days 156, 157, 158 and 159; day 136 thigh meat was kept separate for each bird) and ground in a similar manner. Patties were made (10 g for breast; 60 g for thighs) using a 100×15 mm Petri dish as a mold.
Patties were quartered and each quarter was stored at 2.2C for a designated period of time. One quarter was used per sampling period. Sampling periods for the raw ground meat were day 0, day 3, day 7 and day 10. Thiobarbituric acid reacting substances (TBARS) analyses was performed on the raw ground chicken breasts and thighs according to the procedure of Ahn, D. U., D. G. Olson, C. Jo, X. Chen, C. Wu, and J. I. Lee, “Effect of Muscle Type, Packaging, and Irradiation on Lipid Oxidation, Volatile Production and Color in Raw Pork Patties”, Meat Sci. 49:27-39 (1998).

swine [2] = experiment: 2002 swine feed test: sensory characteristics of cooked pork loin chops
Source text: Applicants conducted a second swine feeding trial to further determine the effects on meat quality of supplementation of a swine diet with alpha-tocopherol (AT), gamma-tocopherol (GT) or mixed tocotrienols (MT). Seventy-two barrows (˜75 lbs.) were transported to the Pioneer Livestock Nutrition Center (PLNC) and randomly placed into individual pens with water and feed provided ad libitum. The pigs received a common diet for seven days. On the eighth day the pigs were weighed individually and a uniform group of sixty pigs with an average body weight of about 75 pounds was selected. The pigs were randomly assigned one of five dietary treatments with 12 pigs per treatment. The feeding trial was initiated on Mar. 12, 2002 and ended on Jun. 19, 2002. The pigs were fed a corn-soybean meal diet formulated to provide adequate levels of all nutrients. In addition, one of five dietary treatments was assigned to each group: control, 300 ppm AT, 450 ppm GT, 150 ppm MT, and 300 ppm MT. To each diet a corn oil premix and a ground corn premix were added with the corn oil premix as a carrier for the supplemental tocopherols and the ground corn premix as the carrier for the MT. The MT supplement was obtained commercially from Fuji Chemical Industries (U.S.A.) Inc. of Robbinsville, N.J., and contained 7.5% alpha-, 12.3% gamma- and 3.0% delta-tocotrienol, as well as 7.2% alpha-tocopherol. A one-inch thick chop was collected from the 10th rib region of each pig carcass to evaluate the effects of dietary treatment on cooked product characteristics. Sensory evaluation was conducted using a trained sensory panel. Each panelist evaluated a ½ inch cube removed from the center of a cooked pork chop immediately after reaching 71 degrees C. Samples were evaluated for degree of juiciness, tenderness, chewiness, pork flavor and off-flavor intensity.

chickens [3] = experiment: 2002 poultry feed test: TBARS content of cooked ground chicken breasts; conditions: 300 ppm in diet
Source text: as §1, §2
Raw ground chicken breast and thigh patties were cooked in a pre-warmed George Foreman grill for five minutes per breast patty and four minutes per thigh patty. Cooked patties were allowed to cool under refrigeration and then quartered (day 136) or halved (days 156, 157, 158 and 159). Each quarter or half was stored at 2.2C in zip lock baggies for a designated period of time. One quarter was used per sampling period. Sampling periods were 0 hours, 4 hours, 26 hours and 48 hours. Thiobarbituric acid reacting substances (TBARS) analyses was performed according to Ahn et al., and the results are shown in the following two tables.

swine [4] = experiment: 2002 swine feed test: 24 hour raw pork loin quality; parameters: Marbling / Fat Firmness / Color Score: scale not given here
Source text: Applicants conducted a second swine feeding trial to further determine the effects on meat quality of supplementation of a swine diet with alpha-tocopherol (AT), gamma-tocopherol (GT) or mixed tocotrienols (MT). Seventy-two barrows (˜75 lbs.) were transported to the Pioneer Livestock Nutrition Center (PLNC) and randomly placed into individual pens with water and feed provided ad libitum. The pigs received a common diet for seven days. On the eighth day the pigs were weighed individually and a uniform group of sixty pigs with an average body weight of about 75 pounds was selected. The pigs were randomly assigned one of five dietary treatments with 12 pigs per treatment. The feeding trial was initiated on Mar. 12, 2002 and ended on Jun. 19, 2002.
The pigs were fed a corn-soybean meal diet formulated to provide adequate levels of all nutrients. In addition, one of five dietary treatments was assigned to each group: control, 300 ppm AT, 450 ppm GT, 150 ppm MT, and 300 ppm MT. To each diet a corn oil premix and a ground corn premix were added with the corn oil premix as a carrier for the supplemental tocopherols and the ground corn premix as the carrier for the MT. The MT supplement was obtained commercially from Fuji Chemical Industries (U.S.A.) Inc. of Robbinsville, N.J., and contained 7.5% alpha-, 12.3% gamma- and 3.0% delta-tocotrienol, as well as 7.2% alpha-tocopherol.
The pigs were harvested in June 2002 when they had reached an average weight of about 245 pounds. Following a twelve-hour feed withdrawal, the pigs were transported to a commercial processing facility. At the commercial processing facility, individual hot carcass weight, back fat depth and loin depth were measured and recorded on the day of slaughter. Loin pH, loin color value (Minolta L*), Marbling and fat firmness were recorded 24 hours post mortem.

[5] = scale of 1 to 10, 450 ppm in diet
[6] = scale of 1 to 10, 300 ppm in diet

## Cc1c(O)cc2c(c1C)O[C@](C)(CCC[C@H](C)CCC[C@H](C)CCCC(C)C)CC2 [GT, gamma-tocopherol]
Chickens [1]; Day 0 at 2.2C
  TBARS content: 0.3022 mg Malonaldehyde/kg sample
Chickens [1]; Day 3 at 2.2C
  TBARS content: 0.1926 mg Malonaldehyde/kg sample
Chickens [1]; Day 7 at 2.2C
  TBARS content: 0.0860 mg Malonaldehyde/kg sample
Chickens [1]; Day 10 at 2.2C
  TBARS content: 0.1428^b mg Malonaldehyde/kg sample
Swine [2]; [5]
  Chewiness: 2.5
  Juiciness: 5.4
  Off-flavor: 3.9
  Pork Flavor: 1.8
  Tenderness: 7.3
Chickens [3]; 0 hours at 2.2C
  TBARS content: 0.3809 mg Malonaldehyde/kg sample
Chickens [3]; 4 hours at 2.2C
  TBARS content: 0.3443^b mg Malonaldehyde/kg sample
Chickens [3]; 26 hours at 2.2C
  TBARS content: 0.4559^b mg Malonaldehyde/kg sample
Chickens [3]; 48 hours at 2.2C
  TBARS content: 0.6120^b mg Malonaldehyde/kg sample
Swine [4]; 450 ppm in diet
  Color Score: 3.1
  Fat Firmness: 2.0
  Hunter L*: 48.81
  Marbling: 1.9

## Cc1c(C)c2c(c(C)c1O)CC[C@@](C)(CCC[C@H](C)CCC[C@H](C)CCCC(C)C)O2 [AT, alpha-tocopherol]
Chickens [1]; Day 0 at 2.2C
  TBARS content: 0.4569 mg Malonaldehyde/kg sample
Chickens [1]; Day 3 at 2.2C
  TBARS content: 0.1214 mg Malonaldehyde/kg sample
Chickens [1]; Day 7 at 2.2C
  TBARS content: 0.1243 mg Malonaldehyde/kg sample
Chickens [1]; Day 10 at 2.2C
  TBARS content: 0.1151^b mg Malonaldehyde/kg sample
Swine [2]; [6]
  Chewiness: 2.3
  Juiciness: 6.0
  Off-flavor: 4.3
  Pork Flavor: 1.8
  Tenderness: 7.8
Chickens [3]; 0 hours at 2.2C
  TBARS content: 0.3067 mg Malonaldehyde/kg sample
Chickens [3]; 4 hours at 2.2C
  TBARS content: 0.4354^b mg Malonaldehyde/kg sample
Chickens [3]; 26 hours at 2.2C
  TBARS content: 0.3366^b mg Malonaldehyde/kg sample
Chickens [3]; 48 hours at 2.2C
  TBARS content: 0.4433^b mg Malonaldehyde/kg sample
Swine [4]; 300 ppm in diet
  Color Score: 3.2
  Fat Firmness: 2.3
  Hunter L*: 48.89
  Marbling: 2.1
